Reference: patent US20100286215A1, “BIS-AROMATIC COMPOUNDS USEFUL IN THE TREATMENT OF INFLAMMATION” (BIS-AROMATIC COMPOUNDS USEFUL IN THE TREATMENT OF …, priority 2007, published 2010)

Each molecule was assayed against T1, Recombinant human LTC4 synthase (Homo sapiens, UniProt Q16873) (assay: LTC4 synthase assay (conversion of LTA4 methyl ester to LTC4 methyl ester, HPLC)). Conditions: not given.
T1 construct: made in house; host or cells: Pichia pastoris ('Piccia pastoralis' [sic])
T1 sequence (Q16873 1-150): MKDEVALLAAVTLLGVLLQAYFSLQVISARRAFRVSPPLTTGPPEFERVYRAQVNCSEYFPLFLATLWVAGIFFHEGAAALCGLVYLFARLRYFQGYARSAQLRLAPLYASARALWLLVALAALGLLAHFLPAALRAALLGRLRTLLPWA
Type: biochemical
Method: In the assay LTC4 synthase catalyses the reaction where the substrate LTA4 methyl ester is converted to LTC4 methyl ester. Recombinant human LTC4 synthase is expressed in Piccia pastoralis and the purified enzyme is dissolved in 25 mM Tris-buffer pH 7.8 and stored at −20° C. The assay is performed in phosphate buffered saline (PBS) pH 7.4, supplemented with 5 mM glutathione (GSH). The reaction is terminated by addition of acetonitrile/MeOH/acetic acid (50/50/1). The assay is performed at rt in 96-well plates. Analysis of the formed LTC4 methyl ester is performed with reversed phase HPLC (Waters 2795 utilizing an Onyx Monolithic C18 column). The mobile phase consists of acetonitrile/MeOH/H2O (32.5/30/37.5) with 1% acetic acid pH adjusted with NH3 to pH 5.6, and absorbance measured at 280 nm with a Waters 2487 UV-detector.
The following is added chronologically to each well: • 1. 50 μl assay buffer, PBS with 5 mM GSH. • 2. 0.5 μl inhibitor in DMSO. • 3. 2 μl LTC4 synthase in PBS. The total protein concentration in this solution is 0.025 mg/ml. Incubation of the plate at room temperature for 10 minutes. • 4. 0.5 μl LTA4 methyl ester. Incubation of the plate at rt for 1 min. • 5. 50 μl stop solution. 80 μl of the incubation mixture is analysed with HPLC.

Structure (SMILES) | IC50
CCCCOc1ccc(S(=O)(=O)Nc2ccc(C(=O)c3ccc(NC(=O)c4ccc(OC(C)C)cc4)c(C(=O)O)c3)cc2C(=O)O)cc1 [Example 13, 5-[(3-Carboxy-4-(4-n-butoxy-benzenesulfonylamino)benzoyl)]-2-(4-isopropoxybenzoylamino)-benzoic acid] | 0.086 µM

Same assay, conditions: inhibitor concentration 0.3 μM; read-out: Percantage Inhibition (at a concentration of 0.3 μM)

inhibition at 0.3 µM | Structure (SMILES)
92% | CCCCc1ccc(C(=O)Nc2ccc(C(=O)c3ccc(NC(=O)c4ccc(C(F)(F)F)cc4)c(C(=O)O)c3)cc2C(=O)O)cc1 [Example 9, 2-(4-butylbenzamido)-5-(4-(4-(trifluoromethyl)benzamido)-3-carboxyphenylcarbonyl)-benzoic acid]

Same assay, conditions: inhibitor concentration 10 μM; read-out: Percantage Inhibition at 10 μM (unless specified otherwise)

Structure (SMILES) | inhibition at 10 µM
CN(c1ccc(Cl)cc1)c1ccc(C(=O)c2ccc(NC3CCC(C(C)(C)C)CC3)c(C(=O)O)c2)cc1 (centres unmarked) [Example 14:3, 2-(4-tert-Butyl-cyclohexylamino)-5-{4-[(4-chloro-phenyl)-methyl-amino]-benzoyl}-benzoic acid] | 86%
CN(c1ccc(Cl)cc1)c1ccc(C(=O)c2ccc(Oc3ccccc3Cl)c(C(=O)O)c2)cc1 [6:4, 2-(2-Chloro-phenoxy)-5-{4-[(4-chloro-phenyl)-methyl-amino]-benzoyl}-benzoic acid] | 97%
CCCCOc1ccc(S(=O)(=O)Nc2ccc(C(=O)c3ccc(NC(=O)c4ccc(OC(C)C)cc4)c(C(=O)O)c3)cc2C(=O)O)cc1 [Example 13, 5-[(3-Carboxy-4-(4-n-butoxy-benzenesulfonylamino)benzoyl)]-2-(4-isopropoxybenzoylamino)-benzoic acid] | 100%
CCCCOc1ccc(S(=O)(=O)Nc2ccc(C(=O)c3ccc(Nc4ccc(F)c(F)c4)c(C(=O)O)c3)cc2)cc1 [Example 14, 5-(4-(4-butoxyphenylsulfonamido)benzoyl)-2-(3,4-difluorophenylamino)benzoic acid] | 100%
CN(c1ccc(Cl)cc1)c1ccc(C(=O)c2ccc(Oc3ccc(F)c(F)c3)c(C(=O)O)c2)cc1 [6:3, 5-{4-[(4-Chloro-phenyl)-methyl-amino]-benzoyl}-2-(3,4-difluoro-phenoxy)-benzoic acid] | 90%
CCCCOc1ccc(S(=O)(=O)Nc2ccc(C(=O)c3ccc(N(C)c4ccc(F)c(F)c4)c(C(=O)O)c3)cc2)cc1 [Example 17, 5-(4-(4-butoxyphenylsulfonamido)benzoyl)-2-((3,4-di-fluorophenyl)(methyl)amino)benzoic acid] | 99%
O=C(c1ccc(Nc2ccc(F)c(F)c2)cc1)c1ccc(Oc2ccc(F)c(F)c2)c(C(=O)O)c1 [8:1, 2-(3,4-Difluoro-phenoxy)-5-[4-(3,4-difluoro-phenylamino)-benzoyl]-benzoic acid] | 97%
CCCCCCC(=O)Nc1ccc(C(=O)c2ccc(NC(=O)c3ccc(Cl)cc3Cl)c(C(=O)O)c2)cc1 [14:2, 2-(2,4-Dichloro-benzoylamino)-5-(4-heptanoylamino-benzoyl)-benzoic acid] | 100%
COc1cc(Cl)ccc1Oc1ccc(C(=O)c2ccc(N(C)c3ccc(Cl)cc3)cc2)cc1C(=O)O [6:5, 2-(4-Chloro-2-methoxy-phenoxy)-5-{4-[(4-chloro-phenyl)-methyl-amino]-benzoyl}-benzoic acid] | 98%
CN(c1ccc(Cl)cc1)c1ccc(C(=O)c2ccc(Oc3ccccc3OC(F)(F)C(F)F)c(C(=O)O)c2)cc1 [6:8, 5-{4-[(4-Chloro-phenyl)-methyl-amino]-benzoyl}-2-[2-(1,1,2,2-tetrafluoro-ethoxy)-phenoxy]-benzoic acid] | 98%
O=C(c1ccc(Nc2cccc(Cl)c2)cc1)c1ccc(Oc2ccc(F)c(F)c2)c(C(=O)O)c1 [8:2, 5-[4-(3-Chloro-phenylamino)-benzoyl]-2-(3,4-difluoro-phenoxy)-benzoic acid] | 98%
CN(c1ccc(Cl)cc1)c1ccc(C(=O)c2ccc(Oc3cccc(Cl)c3F)c(C(=O)O)c2)cc1 [6:6, 2-(3-Chloro-2-fluoro-phenoxy)-5-{4-[(4-chloro-phenyl)-methyl-amino]-benzoyl}benzoic acid] | 83%
O=C(Nc1ccc(C(F)(F)F)cc1)Nc1ccc(C(=O)c2ccc(NC(=O)Nc3ccc(C(F)(F)F)cc3)c(C(=O)O)c2)cc1C(=O)O [Example 6, 2-[3-(4-trifluoromethylphenyl)-ureido]-5-{3-carboxy-4-[3-(4-trifluoromethylphenyl)ureido]-benzoyl}benzoic acid] | 95%
CN(c1ccc(F)c(F)c1)c1ccc(C(=O)c2ccc(Nc3ccc(Cl)cc3)cc2)cc1C(=O)O [Example 19, 5-(4-(4-chlorophenylamino)-benzoyl)-2-((3,4-difluoro-phenyl)(methyl)amino)-benzoic acid] | 75%
O=C(c1ccc(Nc2ccc(F)c(F)c2)cc1)c1ccc(Nc2ccc(F)c(F)c2)c(C(=O)O)c1 [5:3, 2-(3,4-Difluoro-phenylamino)-5-[4-(3,4-difluoro-phenylamino)-benzoyl]-benzoic acid] | 84%
O=C(c1ccc(Nc2ccc(Cl)cn2)cc1)c1ccc(Nc2ccc(F)c(F)c2)c(C(=O)O)c1 [5:6, 5-[4-(5-Chloro-pyridin-2-ylamino)-benzoyl]-2-(3,4-difluoro-phenylamino)-benzoic acid] | 84%
CCCCOc1ccc(S(=O)(=O)Nc2ccc(C(=O)c3ccc(NC(=O)c4cccc(Cl)c4Cl)c(C(=O)O)c3)cc2C(=O)O)cc1 [Example 12, 5-[(3-Carboxy-4-(4-n-butoxy-benzenesulfonylamino)benzoyl)]-2-(2,3-dichlorobenzoylamino)benzoic acid] | 98%
O=C(Nc1ccc(C(=O)c2ccc(NC(=O)c3ccc(Cl)cc3Cl)c(C(=O)O)c2)cc1C(=O)O)c1ccc(OC(F)(F)F)cc1 [Example 11, 2-(4-(trifluoromethoxy)benzamido)-5-(4-(2,4-dichloro-benzamido)-3-carboxyphenyl-carbonyl)benzoic acid] | 100%
CN(c1ccc(Cl)cc1)c1ccc(C(=O)c2ccc(NC(=O)c3cccc(Cl)c3Cl)c(-c3nnn[nH]3)c2)cc1 [10:4, 2,3-Dichloro-N-[4-{4-[(4-chloro-phenyl)-methyl-amino]-benzoyl}-2-(1H-tetrazol-5-yl)-phenyl]-benzamide] | 77%

Next, values leading:

inhibition at 10 µM | Structure (SMILES)
68% | CC(C)Oc1ccc(C(=O)Nc2ccc(C(=O)c3ccc(Nc4ccc(F)c(F)c4)c(C(=O)O)c3)cc2)cc1 [Example 15, 2-(3,4-difluorophenylamino)-5-(4-(4-isopropoxybenzamido)benzoyl)benzoic acid]
100% | O=C(Nc1ccc(C(=O)c2ccc(NS(=O)(=O)c3ccc(Cl)cc3)c(C(=O)O)c2)cc1)c1cccc(Cl)c1 [7:2, 2-(4-Chloro-benzenesulfonylamino)-5-[4-(3-chloro-benzoylamino)-benzoyl]-benzoic acid]
100% | CN(c1ccc(F)c(F)c1)c1ccc(C(=O)c2ccc(NC(=O)c3cc(Cl)ccc3O)cc2)cc1C(=O)O [Example 18, 5-(4-(5-chloro-2-hydroxy-benzamido)benzoyl)-2-((3,4-difluorophenyl)(methyl)-amino)benzoic acid]
98% | O=C(Nc1ccc(C(=O)c2ccc(NS(=O)(=O)c3ccc(Cl)cc3)cc2)cc1C(=O)O)c1cccc(Cl)c1 [7:11, 5-[4-(4-Chloro-benzenesulfonylamino)-benzoyl]-2-(3-chloro-benzoylamino)-benzoic acid]
78% | O=C(c1ccc(NC(=O)c2cc(Cl)ccc2O)cc1)c1ccc(Nc2ccc(F)c(F)c2)c(C(=O)O)c1 [5:4, 5-[4-(5-Chloro-2-hydroxy-benzoylamino)-benzoyl]-2-(3,4-difluoro-phenylamino)-benzoic acid]
99% | O=C(c1ccc(NS(=O)(=O)c2ccc(Cl)cc2)cc1)c1ccc(NC(=O)c2cccc(C(F)(F)F)c2F)c(C(=O)O)c1 [7:9, 5-[4-(4-Chloro-benzenesulfonylamino)-benzoyl]-2-(2-fluoro-3-trifluoromethyl-benzoylamino)-benzoic acid]
87% | O=C(Nc1ccc(C(=O)c2ccc(Nc3ccc(F)c(F)c3)c(C(=O)O)c2)cc1)c1cccc(Cl)c1 [5:11, 5-[4-(3-Chloro-benzoylamino)-benzoyl]-2-(3,4-difluoro-phenylamino)-benzoic acid]
95% | O=C(Nc1ccc(C(=O)c2ccc(Nc3ccc(F)c(F)c3)c(C(=O)O)c2)cc1)Nc1cccc(Cl)c1 [5:1, 5-{4-[3-(3-Chloro-phenyl)-ureido]-benzoyl}-2-(3,4-difluoro-phenylamino)-benzoic acid]
98% | O=C(c1ccc(NC(=O)c2cc(Cl)ccc2Cl)cc1)c1ccc(Nc2ccc(F)c(F)c2)c(C(=O)O)c1 [5:10, 5-[4-(2,5-Dichloro-benzoylamino)-benzoyl]-2-(3,4-difluoro-phenylamino)-benzoic acid]
100% | O=C(Nc1ccc(C(=O)c2ccc(NC(=O)c3cccc4ccsc34)c(C(=O)O)c2)cc1)c1cccc(Cl)c1 [7:5, 2-[(Benzo[b]thiophene-7-carbonyl)-amino]-5-[4-(3-chloro-benzoylamino)-benzoyl]-benzoic acid]
86% | CN(c1ccc(Cl)cc1)c1ccc(C(=O)c2ccc(Nc3ccc(C(F)(F)F)cc3)c(C(=O)O)c2)cc1 [9:3, 5-{4-[(4-Chloro-phenyl)-methyl-amino]-benzoyl}-2-(4-trifluoromethyl-phenylamino)-benzoic acid]
